# According to US20050020665A1, “Pharmaceutical composition for treating multiple sclerosis” (priority 2001, published 2005):
# Read-outs that look alike come from different tables or passages of the source.
# What was measured:
# [1] = tested on: MS patients; conditions: cited from earlier work
# [2] = tested on: experimental allergic encephalomyelitis (EAE); conditions: cited from earlier work
# [3] = tested on: inflammatory reactions of MS in the animal model; conditions: cited from earlier work
# [4] = tested on: MS patients; conditions: cited from earlier work; remark: listed apart in the source
# [5] = tested on: patients having clinically active MS; test: treatment trial of MS patients with zileuton (Zyflo Filmtab), three years, with brain nuclear magnetic resonance using Magnevist; format: in vivo, humans
# Protocol: 15 patients having clinically active MS were treated with zileuton in a treatment trial. 15 MS patients without this treatment served as a control. One tablet of Zyflo™Filmtab® was administered to each four times a day.
# [6] = 15 MS patients, one Zyflo Filmtab tablet four times a day, three years, compared with 15 MS patients without this treatment
compound,measurement,setting,value
Cn1cnc([N+](=O)[O-])c1Sc1ncnc2[nH]cnc12 [azothioprin],effect in the treatment of MS patients,[1],not convincing
same,effect in the EAE animal test,[2],showed promising indications
O=C(O)c1cc(/N=N/c2ccc(S(=O)(=O)Nc3ccccn3)cc2)ccc1O [azulfidine],effect in the animal model (suppression of inflammatory reactions of MS),[3],successful in the animal model
same,effect of treatment in MS patients,"[4]; first 18 months of treatment, double blind study",exceptionally beneficial effect could be proven
same,effect of treatment in MS patients,[4]; three years after the end of the study,this effect could no longer be proven
"CC(c1cc2ccccc2s1)N(O)C(N)=O (centres unmarked) [zileuton, 1-(1-benzo[b]thien-2-ylethyl)-1-hydroxy urea]",chronic progression,[5]; [6],significantly decreased
same,frequency of attacks,[5]; [6],significantly decreased
same,new or acute centres of inflammation absorbing the contrast agent (brain nuclear magnetic resonance),"[5]; every six months, contrast agent Magnevist",No new or acute centres absorbing the contrast agent could be determined
